Measured values published in PMC7252214 (The Plant journal : for cell and molecular biology, 2019).

Target: T1, ApKSL2 (Andrographis paniculata, UniProt A0A3G1S3U0)
T1 sequence (A0A3G1S3U0 41-814): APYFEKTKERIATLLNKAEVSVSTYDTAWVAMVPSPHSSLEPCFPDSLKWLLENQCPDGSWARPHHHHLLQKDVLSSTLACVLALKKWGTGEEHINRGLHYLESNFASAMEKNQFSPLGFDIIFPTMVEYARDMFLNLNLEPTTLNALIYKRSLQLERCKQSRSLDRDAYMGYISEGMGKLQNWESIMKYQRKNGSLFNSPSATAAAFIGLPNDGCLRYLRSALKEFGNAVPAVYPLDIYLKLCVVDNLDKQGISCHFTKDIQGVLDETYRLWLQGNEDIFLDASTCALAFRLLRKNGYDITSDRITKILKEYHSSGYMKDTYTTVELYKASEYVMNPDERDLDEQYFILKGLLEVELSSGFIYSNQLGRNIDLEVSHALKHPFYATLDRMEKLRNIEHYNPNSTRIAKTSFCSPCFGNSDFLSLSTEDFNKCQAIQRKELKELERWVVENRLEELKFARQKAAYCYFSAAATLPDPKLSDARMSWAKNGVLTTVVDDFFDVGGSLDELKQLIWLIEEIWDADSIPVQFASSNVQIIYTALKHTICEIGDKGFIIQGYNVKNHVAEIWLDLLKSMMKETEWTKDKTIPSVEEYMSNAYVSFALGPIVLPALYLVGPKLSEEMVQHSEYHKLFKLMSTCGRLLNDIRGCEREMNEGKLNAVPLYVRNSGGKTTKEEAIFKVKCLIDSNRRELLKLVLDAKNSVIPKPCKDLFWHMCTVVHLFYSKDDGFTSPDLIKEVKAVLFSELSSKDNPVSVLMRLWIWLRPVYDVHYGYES
Assay: co-expression in E. coli, GC-MS of products
Format: cell-based
Settings: E. coli engineered to produce ent-CPP; product ent-kaurene

## C=C1CC[C@@H]2C(C)(C)CCC[C@@]2(C)[C@@H]1CC/C(C)=C/COP(=O)(O)OP(=O)(O)O [ent-CPP]
  co-expression in E. coli, GC-MS of products: ApKSL2 acted on both ent-CPP, producing ent-kaurene
